Measured values taken from US20100004403A1, “High-Molecular Weight Conjugate of Combretastatins” (priority 2006, published 2010).

Key:
[1] = system: Mouse colon cancer, Colon26; assay: Antitumor effect, Test Example 2: subcutaneously transplanted Colon26 in mice, single intravenous administration; assay type: in vivo, mouse (female CDF1 mice); details: single i.v.
Experimental: (§1) Mouse colon cancer, Colon26, maintained by serial subcutaneous subculture in mice was minced into about 2-mm square fragments, and the fragments were subcutaneously transplanted on the dorsal part of female CDF1 mice with a trocar. Seven days after tumor transplantation, the high-molecular weight conjugate of the present invention (compound 1) or a control drug (combretastatin A-4) was administered a single time intravenously to the mouse tail vein, at a dose respectively calculated on the basis of combretastatin A-4. The control is a group not given the drug. Compound 1 was dissolved in a 5% glucose injection solution and used. Combretastatin A-4 was dissolved in dimethylsulfoxide and Cremophor EL (manufactured by Sigma-Aldrich Company), and was used after diluted with a 5% glucose injection solution at the time of use. After the administration, the major axis (L mm) and the minor axis (W mm) of the tumor were measured using a caliper, and the volume of tumor was calculated by the formula: (L×W^2)/2.

[2] = system: Mouse colon cancer, Colon26; assay: Antitumor effect, Test Example 3: subcutaneously transplanted Colon26 in mice, single intravenous administration; assay type: in vivo, mouse (female CDF1 mice); details: 200 mg/kg (as combretastatin A-4), single i.v.
Experimental: as §1, with “1-mm” for “2-mm”, “2 and compound 3)” for “1)”, “A-4 phosphoric acid ester) synthesized by a method according to Non-Patent Document 1” for “A-4)”, “2, compound 3 and the control drug were all” for “1 was”, “used.” for “used. Combretastatin A-4 was dissolved in dimethylsulfoxide and Cremophor EL (manufactured by Sigma-Aldrich Company), and was used after diluted with a 5% glucose injection solution at the time of use.”

COc1ccc(/C=C\c2cc(OC)c(OC)c(OC)c2)cc1O [Combretastatin A-4, combretastatin A-4]
relative tumor volume based on the tumor volume on the day of initiation of administration ([1]; 200 mg/kg (as combretastatin A-4), day 0 after administration): 1.00 | relative tumor volume based on the tumor volume on the day of initiation of administration ([1]; 200 mg/kg (as combretastatin A-4), day 2 after administration): 1.77 | relative tumor volume based on the tumor volume on the day of initiation of administration ([1]; 200 mg/kg (as combretastatin A-4), day 4 after administration): 3.73 | relative tumor volume based on the tumor volume on the day of initiation of administration ([1]; 200 mg/kg (as combretastatin A-4), day 7 after administration): 9.25 | relative tumor volume based on the tumor volume on the day of initiation of administration ([1]; 200 mg/kg (as combretastatin A-4), day 8 after administration): 12.03 | relative tumor volume based on the tumor volume on the day of initiation of administration ([1]; 400 mg/kg, day 0 after administration): 1.00 | relative tumor volume based on the tumor volume on the day of initiation of administration ([1]; 400 mg/kg, day 2 after administration): 1.24 | relative tumor volume based on the tumor volume on the day of initiation of administration ([1]; 400 mg/kg, day 4 after administration): 2.21 | relative tumor volume based on the tumor volume on the day of initiation of administration ([1]; 400 mg/kg, day 7 after administration): 5.09 | relative tumor volume based on the tumor volume on the day of initiation of administration ([1]; 400 mg/kg, day 8 after administration): 6.41

COc1ccc(/C=C\c2cc(OC)c(OC)c(OC)c2)cc1OP(=O)(O)O [Combretastatin A-4 phosphoric acid ester, combretastatin A-4 phosphoric acid ester]
relative tumor volume based on the tumor volume on the day of initiation of administration ([2]; day 0 after administration): 1.00 | relative tumor volume based on the tumor volume on the day of initiation of administration ([2]; day 2 after administration): 1.57 | relative tumor volume based on the tumor volume on the day of initiation of administration ([2]; day 4 after administration): 3.12 | relative tumor volume based on the tumor volume on the day of initiation of administration ([2]; day 7 after administration): 9.33 | relative tumor volume based on the tumor volume on the day of initiation of administration ([2]; day 9 after administration): 10.11
